Assay results: patent publication US20200255478A1, “NOVEL COMPOUNDS ACTIVATING THE NRF2 PATHWAY” (Almirall, S.A., priority 2017, published 2020)
Starred links: 1 amine or outer side, 2 acyl side, 3 side chain; linkers in the order of their positions; H or OH if unused. Positions of bridges follow the written chain, without caps; N, C: chain ends. Non-standard residues stand in square brackets, D forms with d. Residues, ends and D or L forms follow the SMILES beside them. *: point of attachment. Trp(2-yl) = O=C([C@H](Cc1c([*:3])[nH]c2ccccc12)N[*:1])[*:2]; oXylylene = c1ccc(C[*:2])c(C[*:1])c1; X6 = c1ccc2nc(C[*:2])c(C[*:1])nc2c1; Stearoyl = CCCCCCCCCCCCCCCCCC(=O)*; βAla = NCCC(=O)O

The molecules below were run against Keap1-Maltose Binding Protein (MBP tag) (Homo sapiens, UniProt Q14145) (assay: Nrf2-Keap1 HTRF (TR-FRET) binding assay: displacement of biotinylated ETGE peptide from Keap1-MBP). Settings: not given.
Chain of Keap1-Maltose Binding Protein (MBP tag) (Q14145 whole entry): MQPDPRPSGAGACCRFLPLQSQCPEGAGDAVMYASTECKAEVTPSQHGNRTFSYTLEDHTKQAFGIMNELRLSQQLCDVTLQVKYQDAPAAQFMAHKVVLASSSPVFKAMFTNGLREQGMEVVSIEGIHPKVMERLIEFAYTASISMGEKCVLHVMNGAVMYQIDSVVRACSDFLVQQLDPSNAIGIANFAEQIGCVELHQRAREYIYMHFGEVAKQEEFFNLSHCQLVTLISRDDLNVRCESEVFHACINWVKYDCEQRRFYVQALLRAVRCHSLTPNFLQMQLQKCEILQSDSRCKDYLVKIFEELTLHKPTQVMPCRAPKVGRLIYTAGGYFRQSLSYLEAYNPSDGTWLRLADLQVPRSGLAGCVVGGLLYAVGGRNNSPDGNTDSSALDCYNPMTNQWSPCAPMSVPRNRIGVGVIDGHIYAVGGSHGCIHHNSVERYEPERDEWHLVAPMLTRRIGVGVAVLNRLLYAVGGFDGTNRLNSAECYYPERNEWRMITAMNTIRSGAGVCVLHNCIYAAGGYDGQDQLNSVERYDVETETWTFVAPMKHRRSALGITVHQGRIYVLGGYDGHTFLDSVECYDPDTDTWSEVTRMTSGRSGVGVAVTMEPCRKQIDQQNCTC

Question: How did the IC50 turn out when CCCCCCCCCCCCCCCCCCCCCC(=O)N[C@H]1C[C@H]2C(=O)N[C@@H](CCC(N)=O)C(=O)N[C@H]3CSCc4ccccc4CSC[C@H](NC(=O)[C@H](CCC(=O)O)NC(=O)CNC(=O)[C@H]([C@@H](C)O)NC(=O)[C@H](CCC(=O)O)NC(=O)[C@@H]4CCCN4C(=O)[C@H](CC(=O)O)NC3=O)C(=O)N[C@@H](CC(C)C)C(=O)N3CCC[C@@H]3C(=O)N2C1 [Example 89, {[&^1Pro((4S)-NH-behenyl)-Gln-Cys(&^2)-Asp-Pro-Glu-Thr-Gly-Glu-Cys(&3)-Leu-D-Pro&^1][&^2(1,2-phenylenediyl)dimethylene&^3]}] was run?
Answer: < 1 nM

Question: With CCCCCCCCCCCCCCCC(=O)N[C@H]1C[C@H]2C(=O)N[C@@H](CCC(N)=O)C(=O)N[C@H]3CSCc4ccccc4CSC[C@H](NC(=O)[C@H](CCC(=O)O)NC(=O)CNC(=O)[C@H]([C@@H](C)O)NC(=O)[C@H](CCC(=O)O)NC(=O)[C@@H]4CCCN4C(=O)[C@H](CC(=O)O)NC3=O)C(=O)N[C@@H](CC(C)C)C(=O)N3CCC[C@@H]3C(=O)N2C1 [Example 83, {[&^1Pro((4S)-NH-Palmitoyl)-Gln-Cys(&^2)-Asp-Pro-Glu-Thr-Gly-Glu-Cys(&^3)-Leu-D-Pro&^1][&^2(1,2-phenylenediyl)dimethylene&^3]}] as the molecule, how does the IC50 read?
Answer: < 1 nM

Question: Which IC50 does the source give for CC(C)C[C@H](NC(=O)[C@@H]1CSc2[nH]c3ccccc3c2C[C@H](NC(=O)[C@H](CCC(N)=O)NC(=O)[C@@H](N)CC(C)C)C(=O)N[C@@H](CC(=O)O)C(=O)N[C@@H](CCC(=O)O)C(=O)N[C@@H](CCC(=O)O)C(=O)N[C@@H]([C@@H](C)O)C(=O)NCC(=O)N[C@@H](CCC(=O)O)C(=O)N1)C(=O)N1CCC[C@H]1C(=O)O [Example 1, H-Leu-Gln-Trp(indol-2-yl-&^1)-Asp-Glu-Glu-Thr-Gly-Glu-Cys(&^1)-Leu-Pro-OH] (H-LQ[Trp(2-yl)]DEETGECLP-OH; thioether 3-10) here?
Answer: 1 to 100 nM

Question: Which IC50 does the source give for CCCCCCCC/C=C/CCCCCCCC(=O)N[C@H]1C[C@H]2C(=O)N[C@@H](CCC(N)=O)C(=O)N[C@H]3CSCc4ccccc4CSC[C@H](NC(=O)[C@H](CCC(=O)O)NC(=O)CNC(=O)[C@H]([C@@H](C)O)NC(=O)[C@H](CCC(=O)O)NC(=O)[C@@H]4CCCN4C(=O)[C@H](CC(=O)O)NC3=O)C(=O)N[C@@H](CC(C)C)C(=O)N3CCC[C@@H]3C(=O)N2C1 [Example 87, {[&^1Pro((4S)-NH-elaidyl)-Gln-Cys(&^2)-Asp-Pro-Glu-Thr-Gly-Glu-Cys(&^3)-Leu-D-Pro&^1][&^2(1,2-phenylenediyl)dimethylene&^3]}] here?
Answer: 1 to 100 nM

Question: Which IC50 does the source give for CCCCCCCCCCCCCCCCCC(=O)N[C@H]1C[C@H]2C(=O)N[C@@H](CCC(N)=O)C(=O)N[C@H]3CSCc4ccccc4CSC[C@H](NC(=O)[C@H](CCC(=O)O)NC(=O)CNC(=O)[C@H]([C@@H](C)O)NC(=O)[C@H](CCC(=O)O)NC(=O)[C@@H]4C[C@H](N)CN4C(=O)[C@H](CC(=O)O)NC3=O)C(=O)N[C@@H](CC(C)C)C(=O)N3CCC[C@@H]3C(=O)N2C1 [Example 73, {[&^1Pro((4S)-NH-Stearyl)-Gln-Cys(&^2)-Asp-Pro((4S)-NH2)-Glu-Thr-Gly-Glu-Cys(&^3)-Leu-D-Pro&^1][&^2(1,2-phenylenediyl)dimethylene&^3]}] here?
Answer: 1 to 100 nM

Same assay, conditions: HTRF (TR-FRET); displacement of ETGE-biotin from Keap1-MBP; values banded into grades; read-out: Binding (IC50) ETGE-Keap1

Question: With CCCCCCCCCCCCCCCCCC(=O)NCCC(=O)N(C)[C@@H](CC(C)C)C(=O)N[C@@H](CCC(N)=O)C(=O)N[C@H]1CSCc2ccccc2CSC[C@@H](C(=O)N[C@@H](CC(C)C)C(=O)N2CCC[C@H]2C(N)=O)NC(=O)[C@H](CCC(=O)O)NC(=O)CNC(=O)[C@H]([C@@H](C)O)NC(=O)[C@H](CCC(=O)O)NC(=O)[C@@H]2CCCN2C(=O)[C@H](CC(=O)O)NC1=O [Example 45, {[Stearyl-βAla-MeLeu-Gln-Cys(&^1)-Asp-Pro-Glu-Thr-Gly-Glu-Cys(&^2)-Leu-Pro-NH2][&^1(1,2-phenylenediyl)dimethylene&^2]}] as the molecule, how does the IC50 read?
Answer: 1 to 100 nM

Question: CC(C)C[C@H](NC(=O)[C@@H]1CSCc2cc3ccccc3cc2CSC[C@H](NC(=O)[C@H](CCC(N)=O)NC(=O)[C@@H](N)CC(C)C)C(=O)N[C@@H](CC(=O)O)C(=O)N[C@@H](C)C(=O)N[C@@H](CCC(=O)O)C(=O)N[C@@H]([C@@H](C)O)C(=O)NCC(=O)N[C@@H](CCC(=O)O)C(=O)N1)C(=O)N1CCC[C@H]1C(=O)NCCC(=O)N[C@@H](CCCNC(=N)N)C(=O)N[C@@H](CCCCN)C(=O)N[C@@H](CCCCN)C(=O)N[C@@H](CCCNC(=N)N)C(=O)N[C@@H](CCCNC(=N)N)C(=O)N[C@@H](CCC(N)=O)C(=O)N[C@@H](CCCNC(=N)N)C(=O)N[C@@H](CCCNC(=N)N)C(=O)N[C@@H](CCCNC(=N)N)C(N)=O [Example 30] was tested. Which IC50 did it give?
Answer: 1 to 100 nM

Question: How did the IC50 turn out when CCCCCCCCCCCCCCCCCC(=O)NCCC(=O)N[C@@H](CCCCN)C(=O)N[C@@H](CCCCN)C(=O)N[C@H]1CSCc2ccccc2CSC[C@@H](C(=O)N[C@@H](CCCCN)C(=O)N[C@@H](CCCCN)C(N)=O)NC(=O)[C@H](CCC(=O)O)NC(=O)CNC(=O)[C@H]([C@@H](C)O)NC(=O)[C@H](CCC(=O)O)NC(=O)[C@@H]2CCCN2C(=O)[C@H](CC(=O)O)NC1=O [Example 53, {[Stearyl-βAla-Lys-Lys-Cys(&^1)-Asp-Pro-Glu-Thr-Gly-Glu-Cys(&^2)-Lys-Lys-NH2][&^1(1,2-phenylenediyl)dimethylene&^2]}] ({Stearoyl-βAla}-KKCDPETGECKK-NH2; linker 3-10 via oXylylene) was run?
Answer: 1 to 100 nM

Question: With CC(=O)N[C@H]1CSCc2nc3ccccc3nc2CSC[C@@H](C(N)=O)NC(=O)[C@H](CCC(=O)O)NC(=O)CNC(=O)[C@H]([C@@H](C)O)NC(=O)[C@H](CCC(=O)O)NC(=O)[C@H](CCC(=O)O)NC(=O)[C@H](CC(=O)O)NC1=O [Example 26, {[Acetyl-Cys(&^1)-Asp-Glu-Glu-Thr-Gly-Glu-Cys(&^2)-NH2][&^1(quinoxaline)2,3-diyldimethylene&^2]}] (Ac-CDEETGEC-NH2; linker 1-8 via X6) as the molecule, how does the IC50 read?
Answer: 1 to 100 nM

Question: How did the IC50 turn out when CCCCCCCCCCCCCCCCCC(=O)NCCC(=O)N[C@H]1CSCc2ccccc2CSC[C@@H](C(N)=O)NC(=O)[C@H](CCC(=O)O)NC(=O)CNC(=O)[C@H]([C@@H](C)O)NC(=O)[C@H](CCC(=O)O)NC(=O)[C@H](C)NC(=O)[C@H](CC(=O)O)NC1=O [Example 28, {[Stearyl-βAla-Cys(&^1)-Asp-Ala-Glu-Thr-Gly-Glu-Cys(&^2)-NH2][&^1(1,2-phenylenediyl)dimethylene&^2]}] was run?
Answer: 1 to 100 nM

Question: How did the IC50 turn out when CC(C)C[C@H](NC(=O)[C@@H]1CSCc2cccc(c2)CSC[C@H](NC(=O)[C@H](CCC(N)=O)NC(=O)[C@@H](N)CC(C)C)C(=O)N[C@@H](CC(=O)O)C(=O)N[C@@H](CCC(=O)O)C(=O)N[C@@H](CCC(=O)O)C(=O)N[C@@H]([C@@H](C)O)C(=O)NCC(=O)N[C@@H](CCC(=O)O)C(=O)N1)C(=O)N1CCC[C@H]1C(=O)NCCC(=O)N[C@@H](CCCNC(=N)N)C(=O)N[C@@H](CCCCN)C(=O)N[C@@H](CCCCN)C(=O)N[C@@H](CCCNC(=N)N)C(=O)N[C@@H](CCCNC(=N)N)C(=O)N[C@@H](CCC(N)=O)C(=O)N[C@@H](CCCNC(=N)N)C(=O)N[C@@H](CCCNC(=N)N)C(=O)N[C@@H](CCCNC(=N)N)C(N)=O [Example 9] was run?
Answer: 1 to 100 nM

Question: Which IC50 does the source give for CCCCCCCCCCCCCCCCCC(=O)N[C@H]1C[C@H]2C(=O)N[C@@H](CCC(N)=O)C(=O)N[C@H]3CSCc4cccc(c4)CSC[C@H](NC(=O)[C@H](CCC(=O)O)NC(=O)CNC(=O)[C@H]([C@@H](C)O)NC(=O)[C@H](CCC(=O)O)NC(=O)[C@@H]4CSCN4C(=O)[C@H](CC(=O)O)NC3=O)C(=O)N[C@@H](CC(C)C)C(=O)N3CCC[C@@H]3C(=O)N2C1 [Example 96, {[&^1Pro((4S)-NH-Stearyl)-Gln-Cys(&^2)-Asp-Thz-Glu-Thr-Gly-Glu-Cys(&^3)-Leu-D-Pro&^1][&^2(1,3-phenylenediyl)dimethylene&^3]}] here?
Answer: < 1 nM
